Source: US20100120690A1, “Polypeptides Having Antimicrobial Activity and Polynucleotides Encoding Same” (Novozymes Adenium Biotech A/S, priority 2005, published 2010)

tested on: Staphylococcus carnosus ATCC51365; experiment: Yeast screening assay: radial diffusion assay of yeast supernatants; assay type: cell-based; design: key: An activity of 3 is better than Plectasin; An activity of 2 corresponds to the activity of Plectasin; 1 is worse than Plectasin; conditions: yeast supernatant, clearing zone in radial diffusion assay
Procedure: A range of antimicrobial polypeptides, which are variants of SEQ ID NO: 1 (Plectasin), were tested for antimicrobial activity by expressing them in S. cerevisae and screening the supernatant of the yeast transformants for antimicrobial activity against Staphylococcus carnosus ATCC51365.
Radial Diffusion Assay was carried out as described in Methods in Molecular Biology, Vol. 78, Antibacterial peptide protocol, William M. Shafer, Human Press.
200-300 yeast transformant colonies were plated on 14 cm round plates containing 25 mL SC growth medium supplemented with 1.5% galactose, 0.5% glucose and 1.5% agarose. Plates were incubated for three hours at room temperature, overlaid with 25 mL of the same growth medium and allowed to grow for three days at 30° C. Then the plates were overlaid with 25 mL of LB growth medium containing 1.5% agarose and 10^5 cells of the indicator strain Staphylococcus carnosus and incubated at 30° C. overnight to allow growth of the bacterial cells. Next day, the plates were stained with 1.5 mM MTT to facilitate visualization of the clearing zones.
Yeast colonies creating clearing zones were transferred to microtiter plates containing 200 micro-L of SC growth medium supplemented with 2% glucose and ampicillin (100 mg/L). Such plates designated “master plates” were incubated for 2 days at 30° C. with shaking at 450 rpm to allow yeast growth.
10 micro-L SC growth medium from each well of the master plates were transferred to new microtiter plates containing 200 micro-L SC growth medium with 1.5% galactose and 0.5% glucose. These plates were called daughter plates and were incubated for 3 days at 30° C. under 450 rpm shaking to allow yeast growth and peptide synthesis.
Finally a Radial Diffusion Assay (RDA) was performed following the protocol described in Methods in Molecular Biology to analyse and quantify the antimicrobial activity of the yeast supernatants against S. carnosus.
Briefly, 30 mL of minimal underlay medium containing 1% agarose and 5×10^5 cfu/mL of S. carnosus was poured in an omnitray plate (Nunc, 242811). A Nunc TSP plate (#445497) was inserted immediately on the plate to allow a 96 well pattern formation. Once the media had solidified, the TSP plate was removed and 10 micro-L of yeast supernatant samples were applied on the holes. Plates were incubated 3 hours at 37° C. and overlaid with 15 mL of LB agar growth medium. Finally, plates were incubated overnight at 37° C. and coloured with 1.5 mM MTT to visualize the clearing zones.
Inspection and measurements of the clearing zones was performed on the plates. The corresponding yeast clones resulting in clearing zones of similar or increased size than the clones encoding for wild type plectasin were picked from the master plates and transferred to agar plates containing SC growth medium with 2% glucose and ampicillin (100 mg/L). Such plates were incubated for further 2 days at 30° C. to allow yeast growth. Subsequently, colony PCR was performed followed by sequence analysis to identify amino acid changes in the plectasin sequence.
An activity of 2 corresponds to the activity of Plectasin. An activity of 3 is better than Plectasin, and 1 is worse than Plectasin.

| Sequence | Activity (antimicrobial activity relative to the activity of plectasin) |
| --- | --- |
| GFGCNGPWDEYDMQCHNHCKSIKGYKGGYCAKGGFVCKCY [Mutation D11Y] | 3 |
| GFGCNGPWDEDDMQCHNHCKSIKGQKGGYCAKGGFVCKCY [Mutation Y25Q] | 2 |
| GFGCNGPWDQDDMQCHNHCKSIKGYKGGYCAKGGFVCKCY [Mutation E10Q] | 2 |
| GFGCNGPWDEDDMQCHNHCKSIKGHKGGYCAKGGFVCKCY [Mutation Y25H] | 2 |
| GFGCNGPWDEDDMHCHNHCKSIKGYKGGYCAKGGFVCKCY [Mutation Q14H] | 3 |
| GFGCNGPWDEDDMQCHNHCKSIKGYKGGYCAKGHFVCKCY [Mutation G34H] | 2 |
| GFGCNGPWDEDDMQCHNHCKSIKYYKGGYCAKGGFVCKCY [Mutation G24Y] | 2 |
| GFGCNGPWDEDDVQCHNHCKSIKGYKGGYCAKGGFVCKCY [Mutation M13V] | 3 |
| GFGCNGPWDEDDMCCHNHCKSIKGYKGGYCAKGGFVCKCY [Mutation Q14C] | 2 |
| GFGCNGPWDEDDMQCHNLCKSIKGYKGGYCAKGGFVCKCY [Mutation H18L] | 3 |
| GFGCNGPWDEDDMQCHNHCKSIKGYKGGFCAKGGFVCKCY [Mutation Y29F] | 3 |
| GFGCNGPWDEDDMQCHNHCKSIKGYKGGYCAKGGFVCRCY [Mutation K38R] | 2 |
| GWGCNGPWDEDDMQCHNHCKSIKGYKGGYCAKGGFVCKCY [Mutation F2W] | 2 |
| GLGCNGPWDEDDMQCHNHCKSIKGYKGGYCAKGGFVCKCY [Mutation F2L] | 2 |
| GFGCNGPWPEDDMQCHNHCKSIKGYKGGYCAKGGFVCKCY [Mutation D9P] | 3 |
| GFGCNGPWDEDDMQCHNHCKSIKGYKGGYCRKGGFVCKCY [Mutation A31R] | 2 |
| GFGCNGPWDEFDMQCHNHCKSIKGYKGGYCAKGGFVCKCY [Mutation D11F] | 3 |
| GFGCNGPWDEDDMQCHNHCKSIKGYKGGYCAKSGFVCKCY [Mutation G33S] | 2 |
| GFGCNGPWDEDDAQCHNHCKSIKGYKGGYCAKGGFVCKCY [Mutation M13A] | 2 |
| GFGCNGPWDEDDMQCHNHCKSIKHYKGGYCAKGGFVCKCY [Mutation G24H] | 3 |
| GFGCNGPWDEDDMQCHNHCKSIKGYKGGYCAKGGFRCKCY [Mutation V36R] | 2 |
| GFGCNGPWDEDDMQCHNHCKSIKGSKGGYCAKGGFVCKCY [Mutation Y25S] | 2 |
| GFGCNRPWDEDDMQCHNHCKSIKGYKGGYCAKGGFVCKCY [Mutation G6R] | 2 |
| GFGCNGPWDENDMQCHNHCKSIKGYKGGYCAKGGFICKCY [D11N + V36I] | 3 |
| GFGCNGPWDEDDMQCHNHCKSIKGYKGGYCARGKFVCKCY [K32R + G34K] | 2 |
| GFGCNGPWDEDDMQCHNHCKSIKGYKGGYCAKGGFVCKCI [Mutation Y40I] | 2 |

| Sequence | Activity (antimicrobial activity relative to the activity of plectasin) |
| --- | --- |
| GFGCNGPWDELDIQCHNHCKSIKGYKGGYCAKGGFVCKCY [D11L + M13I] | 2 |
| GFGCNGPWDEDDMQCHNHCKSVKGYKGGYCAKGGFVCKCY [Mutation I22V] | 3 |
| GFGCNGPWDEDDMQCHNHCKSIKSYKGGYCAKGGFVCKCY [Mutation G24S] | 2 |
| GFGCNGPWDEDDMQCHNHCKSWKGYKGGYCAKGGFVCKCY [Mutation I22W] | 2 |
| GFGCNGPWDEDDMQCHNHCKSIKGYKGGYCAKGGIVCKCY [Mutation F35I] | 2 |
| GFGCNGPWLEDDMQCHNHCKSIKGYNGGYCAKGGFVCKCY [D9L + K26N] | 2 |
| GFGCNGPWDEIDMQCHNHCKSIKGYKGGYCAKGGFVCKCY [Mutation D11I] | 3 |
| GFGCNGPWDEDDMQCHNHCKSIKGYKGGWCAKGGFVCKCY [Mutation Y29W] | 3 |
| GFGCNGPWDEDDMQCHNACKSIKGYKGGYCAKGGFVCKCY [Mutation H18A] | 2 |
| GFGCNGPWDEDDGQCHNHCKSIKGYKGGYCAKGGFVCKCY [Mutation M13G] | 2 |
| GFGCNGPWCEDDMQCHNHCKSIKGYKGGYCAKGGFVCKCY [Mutation D9C] | 2 |
| GFGCNGPWIEDDMQCHNHCKSIKGYKGGYCAKGGFVCKCY [Mutation D9I] | 2 |
| GFGCNGPWDEDDMQCHNHCKSIKGYKGGYCAKGGAVCKCY [Mutation F35A] | 2 |
| GFGCNGPWDEDDMQCHNHCKSIKGYKGGYCVKGGFVCKCY [Mutation A31V] | 2 |
| GFGCNGPWDEDDMYCHNHCKSIKGYKGGYCAKGGFVCKCY [Mutation Q14Y] | 3 |
| GFGCNGPWDEDDMQCHNHCKSIKGYKGGYCAKKGFVCKCY [Mutation G33K] | 3 |
| GFGCNGPWDEPDMQCHNHCKSIKGYKGGYCAKGGFVCKCY [Mutation D11P] | 3 |
| GFGCMGPWDEDDMQCHNHCKSIKGYKGGYCAKGGFVCKCY [Mutation N5M] | 2 |
| GFGCNGVWDEDDMQCHNHCKSIKGYKGGYCAKGGFVCKCY [Mutation P7V] | 2 |
| GFGCNGPWDEDDMQCHNHCKSIKGYKGGRCAKGGFVCKCY [Mutation Y29R] | 3 |
| GFGCNGPWDEDDMQCHNHCKSIKGYKGGYCAKGRFVCKCY [Mutation G34R] | 3 |
| GFGCNGPWDEDDMQCHNHCKSIKGYKGGYCAKGGFMCKCY [Mutation V36M] | 3 |
| GFGCNGPWDEDDMQCHNHCKSIKGYKGGYCYKGGFVCKCY [Mutation A31Y] | 3 |
| GFGCNGPWHEDDMQCHNHCKSIKGYKGGYCAKGGFVCKCY [Mutation D9H] | 3 |
| GFGCNGPWDEDDMICHNHCKSIKGYKGGYCAKGGFVCKCY [Mutation Q14I] | 2 |
